Data on ten molecules can be found in ChEMBL document CHEMBL1121952, “Directional probes of the hydrophobic component of the aromatic ring binding site of norepinephrine N-methyltransferase” (J Med Chem, 1982).

Series [1] addresses T1, Phenylethanolamine N-methyltransferase (Bos taurus, UniProt P10938).
T1 sequence (P10938 whole entry): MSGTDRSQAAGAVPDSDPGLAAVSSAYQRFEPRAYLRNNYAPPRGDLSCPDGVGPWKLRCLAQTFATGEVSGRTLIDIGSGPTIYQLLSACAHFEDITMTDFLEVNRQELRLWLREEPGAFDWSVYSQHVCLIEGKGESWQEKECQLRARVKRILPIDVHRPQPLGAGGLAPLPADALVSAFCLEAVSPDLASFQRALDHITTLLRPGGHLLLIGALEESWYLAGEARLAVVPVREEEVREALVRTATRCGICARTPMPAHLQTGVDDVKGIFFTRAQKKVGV
The series can be described thus: (§1) The inhibitory constant(Ki) value for Norepinephrine N-methyl-transferase was calculated.

The nature of series [2]: Vmax/Km x100 value of the compound. Type of series: ADME.
Compound in series [3]: NCC(O)c1cccc2ccccc12
Described as §1.

Compound in series [4]: NCC(O)c1ccc(-c2ccccc2)cc1
The description is as §1.

Compound in series [5]: NCC(O)c1ccc2ccccc2c1
The series is described as §1.

Compound in series [6]: NCC(O)c1cccc(-c2ccccc2)c1
The description is as §1.

Where only a bound is given, the exact number is not on record here.

In general, Ki refers to a dissociation constant, usually derived from enzyme kinetics or from competition with a known ligand. As to `CC(N)c1cccc(-c2ccccc2)c1` (stereo not drawn), in series [1], the Ki is 89 µM. As for `CC(N)Cc1ccc(-c2ccccc2)cc1` (stereo not drawn), the Ki in series [1] is 262 µM. Turning to `NC[C@@H](O)c1ccccc1`, the “Vmax / Kmax100” value in series [2] was 1.62. Regarding `NCC(O)c1cccc2ccccc12` (stereo not drawn), the “Vmax / Kmax100” value in series [2] stood at 1.29. Take `CC(N)Cc1cccc(-c2ccccc2)c1` (stereo not drawn): the Ki in series [1] is more than 2000 µM. In the case of `CC(N)c1ccc(-c2ccccc2)cc1` (stereo not drawn), the Ki in series [1] is 737 µM.

Turning to `NCC(O)c1cccc(-c2ccccc2)c1` (stereo not drawn), the “Vmax / Kmax100” value in series [2] is on record as 1.42. Still for that read-out and setting: in the case of `NCC(O)c1ccc2ccccc2c1` (stereo not drawn) it was 5.6; in that of `NCC(O)c1ccc(-c2ccccc2)cc1` (stereo not drawn), 5.44.

B1: Phenylethanolamine N-methyltransferase (Bos taurus), P10938 (protein)
chain: MSGTDRSQAAGAVPDSDPGLAAVSSAYQRFEPRAYLRNNYAPPRGDLSCPDGVGPWKLRCLAQTFATGEVSGRTLIDIGSGPTIYQLLSACAHFEDITMTDFLEVNRQELRLWLREEPGAFDWSVYSQHVCLIEGKGESWQEKECQLRARVKRILPIDVHRPQPLGAGGLAPLPADALVSAFCLEAVSPDLASFQRALDHITTLLRPGGHLLLIGALEESWYLAGEARLAVVPVREEEVREALVRTATRCGICARTPMPAHLQTGVDDVKGIFFTRAQKKVGV
The Km is the substrate concentration at which the rate is half of its maximum. For B1, the Km was 132 µM in series [3], 64 µM in series [4], 20 µM in series [5] and 656 µM in series [6].
